# Experimental data as given in publication PMC5643385, “Probing ligand recognition of the opioid pan antagonist AT-076 at nociceptin, kappa, mu, and delta opioid receptors through structure-activity relationships” (Scientific Reports, 2017).
# Where two headings read alike, the source gives them in different places.
# How the values were obtained:
# human KOP receptor [1] = biological target: T1, human KOP receptor (Homo sapiens, UniProt P41145); test: Radioligand competition binding, [3H]U69,593, membranes of transfected CHO cells (Kappa-CN)
# human NOP receptor [2] = biological target: T2, human NOP receptor (Homo sapiens, UniProt P41146); test: Radioligand competition binding, [3H]N/OFQ, membranes of transfected CHO cells
# human MOP receptor [3] = biological target: T3, human MOP receptor (Homo sapiens, UniProt P35372); test: Radioligand competition binding, [3H]DAMGO, membranes of transfected CHO cells
# human DOP receptor [4] = biological target: T4, human DOP receptor (Homo sapiens, UniProt P41143); test: Radioligand competition binding, [3H]DPDPE, membranes of transfected CHO cells
# human MOP receptor [5] = biological target: T3, human MOP receptor; test: biochemical
# human KOP receptor [6] = biological target: T1, human KOP receptor; test: biochemical
# human NOP receptor [7] = biological target: T2, human NOP receptor; test: [35S]GTPγS functional assay (intrinsic activity; Schild analysis vs N/OFQ); type: biochemical
# human NOP receptor [8] = biological target: T2, human NOP receptor; design: method as in PMID 25635572; details: Figure 1; cited from earlier work
# human DOP receptor [9] = biological target: T4, human DOP receptor; details: read-out: DOP Ki; Figure 1; cited from earlier work
# human KOP receptor [10] = biological target: T1, human KOP receptor; design: method as in PMID 25635572; details: Figure 1; cited from earlier work
# human MOP receptor [11] = biological target: T3, human MOP receptor; details: read-out: MOP Ki; Figure 1; cited from earlier work
# human DOP receptor [12] = biological target: T4, human DOP receptor; test: [35S]GTPγS functional assay (intrinsic activity; Schild analysis vs DPDPE); type: biochemical; details: inhibition of agonist-induced [35S]GTPγS binding, read-out: Antagonist Potency (pA2 ± SEM) DOP (converted)
# [13] = [3H]U69,593 displacement, Cheng-Prusoff, mean ± SEM, at least three experiments in triplicate, read-out: Receptor Binding, Ki KOP
# [14] = [3H]N/OFQ displacement, Cheng-Prusoff, mean ± SEM, at least three experiments in triplicate, read-out: Receptor Binding, Ki NOP
# [15] = [3H]DAMGO displacement, Cheng-Prusoff, mean ± SEM, at least three experiments in triplicate, read-out: Receptor Binding, Ki MOP
# [16] = read-out: Receptor Binding, Ki DOP
# [17] = read-out: Receptor Binding, Ki KOP
# [18] = read-out: Receptor Binding, Ki MOP
smiles,measurement,setting,value
"CC(C)[C@@H](CN1CCC(c2cccc(C#N)c2)CC1)NC(=O)[C@H]1Cc2ccccc2CN1 [Compound 9, (R)-N-((S)-1-(4-(3-cyanophenyl)piperidin-1-yl)-3-methylbutan-2-yl)-1,2,3,4-tetrahydroisoquinoline-3-carboxamide]",Ki,human KOP receptor [1]; [13],543 ± 62.2 nM
same,Ki,human NOP receptor [2]; [14],> 10000 nM
same,Ki,human MOP receptor [3]; [15],973 ± 21 nM
same,Ki,human DOP receptor [4]; [16],> 10000 nM
"CC(C)[C@@H](CN1CCC(c2cccc(CNC(=O)[C@@H](N)CCCNC(=N)N)c2)CC1)NC(=O)[C@H]1Cc2ccc(O)cc2CN1 [Compound 12, (R)-N-((S)-1-(4-(3-(((S)-2-amino-5-guanidinopentanamido)methyl)phenyl)piperidin-1-yl)-3-methylbutan-2-yl)-7-hydroxy-1,2,3,4-tetrahydroisoquinoline-3-carboxamide]",Ki,human KOP receptor [1],2.11 ± 0.52 nM
same,Kb,human MOP receptor [5],0.692 nM
same,Kb,human KOP receptor [6],0.158 nM
same,Ki,human NOP receptor [2],6.04 ± 1.32 nM
same,Ki,human MOP receptor [3],5.67 ± 2.38 nM
same,Kb,human NOP receptor [7],5.01 nM
same,Ki,human DOP receptor [4],53.6 ± 7.12 nM
"CC(C)[C@@H](CN1CCC(N2CCc3ccccc32)CC1)NC(=O)[C@H]1Cc2ccc(O)cc2CN1 [Compound 16, (R)-7-hydroxy-N-((S)-1-(4-(indolin-1-yl)piperidin-1-yl)-3-methylbutan-2-yl)-1,2,3,4-tetrahydroisoquinoline-3-carboxamide]",Ki,human NOP receptor [2]; [14],566 ± 129 nM
same,Ki,human DOP receptor [4]; [16],138 ± 45 nM
"CC(C)[C@@H](CN1CCC(c2cccc(CNC(=O)[C@@H](N)CCCNC(=N)N)c2)CC1)NC(=O)[C@H]1Cc2ccccc2CN1 [Compound 13, (R)-N-((S)-1-(4-(3-(((S)-2-amino-5-guanidinopentanamido)methyl)phenyl)piperidin-1-yl)-3-methylbutan-2-yl)-1,2,3,4-tetrahydroisoquinoline-3-carboxamide]",Ki,human KOP receptor [1],56.1 ± 5.38 nM
same,Ki,human NOP receptor [2],43.3 ± 19.1 nM
same,Ki,human MOP receptor [3]; [15],408 ± 37.3 nM
same,Ki,human DOP receptor [4]; [16],> 10000 nM
"CC(C)[C@@H](CN1CCC(c2cccc(O)c2)CC1)NC(=O)[C@@H](N)CCCNC(=N)N [Compound 7, (S)-2-amino-5-guanidino-N-((S)-1-(4-(3-hydroxyphenyl)piperidin-1-yl)-3-methylbutan-2-yl)pentanamide]",Ki,human KOP receptor [1]; [13],125 ± 2.4 nM
same,Ki,human NOP receptor [2]; [14],> 10000 nM
same,Ki,human MOP receptor [3]; [15],1440 ± 57.6 nM
same,Ki,human DOP receptor [4]; [16],> 10000 nM
"CC(C)[C@@H](CN1CCC(c2cccc(CN)c2)CC1)NC(=O)[C@H]1Cc2ccc(O)cc2CN1 [Compound 10, (R)-N-((S)-1-(4-(3-(aminomethyl)phenyl)piperidin-1-yl)-3-methylbutan-2-yl)-7-hydroxy-1,2,3,4-tetrahydroisoquinoline-3-carboxamide]",Ki,human KOP receptor [1],1.08 ± 0.01 nM
same,Kb,human MOP receptor [5],15.5 nM
same,Kb,human KOP receptor [6],0.38 nM
same,Increase in NOP binding affinity compared to cyano precursor 8,human NOP receptor [2],2 fold
same,Ki,human NOP receptor [2],30.7 ± 14.5 nM
same,Ki,human MOP receptor [3],0.68 ± 0.28 nM
same,Kb,human NOP receptor [7],132 nM
same,Ki,human DOP receptor [4]; [16],133 ± 24.9 nM
"CC(C)[C@@H](CN1CCC(c2cccc(O)c2)CC1)NC(=O)[C@H]1Cc2ccc(C#N)cc2CN1 [Compound 2, (R)-7-cyano-N-((S)-1-(4-(3-hydroxyphenyl)piperidin-1-yl)-3-methylbutan-2-yl)-1,2,3,4-tetrahydroisoquinoline-3-carboxamide]",Decrease in KOP binding affinity compared to AT-076,human KOP receptor [1],6 fold
same,Ki,human KOP receptor [1],6.73 ± 1.42 nM
same,Profile in Schild analysis KOP,human KOP receptor [6],N/C^#
same,Ki,human NOP receptor [2]; [14],1890 ± 270 nM
same,Ki,human MOP receptor [3],81.7 ± 12.4 nM
same,Ki,human DOP receptor [4],73.7 ± 57.9 nM
"CC(C)[C@@H](CN1CCC(c2cccc(C#N)c2)CC1)NC(=O)[C@H]1Cc2ccc(O)cc2CN1 [Compound 8, (R)-N-((S)-1-(4-(3-cyanophenyl)piperidin-1-yl)-3-methylbutan-2-yl)-7-hydroxy-1,2,3,4-tetrahydroisoquinoline-3-carboxamide]",Ki,human KOP receptor [1],3.86 ± 0.09 nM
same,Kb,human MOP receptor [5],8.13 nM
same,Kb,human KOP receptor [6],0.269 nM
same,Ki,human NOP receptor [2],61.3 ± 14.6 nM
same,Ki,human MOP receptor [3],2.93 ± 0.67 nM
same,Ki,human DOP receptor [4]; [16],136 ± 59.7 nM
"CC(C)[C@@H](CN1CC[C@@](C)(c2cccc(O)c2)[C@@H](C)C1)NC(=O)[C@H]1Cc2ccc(O)cc2CN1 [JDTic, reference compound]",Ki,"human NOP receptor [2]; read-out: Receptor Binding, Ki NOP",16.7 ± 0.76 nM
same,Ki,human NOP receptor [8],16.7 ± 0.76 nM
"CC(C)[C@@H](CN1CCC(c2cccc(O)c2)CC1)NC(=O)[C@H]1Cc2ccc(CN)cc2CN1 [Compound 3, (R)-7-(aminomethyl)-N-((S)-1-(4-(3-hydroxyphenyl)piperidin-1-yl)-3-methylbutan-2-yl)-1,2,3,4-tetrahydroisoquinoline-3-carboxamide]",Decrease in KOP binding affinity compared to AT-076,human KOP receptor [1],> 100 fold
same,Ki,human KOP receptor [1]; [13],118 ± 29 nM
same,Ki,human NOP receptor [2]; [14],5540 ± 1150 nM
same,Decrease in MOP binding affinity compared to AT-076,human MOP receptor [3],> 100 fold
same,Ki,human MOP receptor [3]; [15],1490 ± 220 nM
same,Decrease in DOP binding affinity compared to AT-076,human DOP receptor [4],> 100 fold
same,Ki,human DOP receptor [4]; [16],1570 ± 1130 nM
"CC(C)[C@@H](CN1CCC(c2cccc(O)c2)CC1)NC(=O)[C@@H](N)CCCCN [Compound 6, (S)-2,6-diamino-N-((S)-1-(4-(3-hydroxyphenyl)piperidin-1-yl)-3-methylbutan-2-yl)hexanamide]",Ki,human KOP receptor [1]; [13],1520 ± 419 nM
same,Ki,human NOP receptor [2]; [14],> 10000 nM
same,Ki,human MOP receptor [3]; [15],> 10000 nM
same,Ki,human DOP receptor [4]; [16],> 10000 nM
"Cc1cccc2c1CC[C@H](CN1CCC(c3c(Cl)cccc3Cl)CC1)C[C@@H]2O [SB-612111, reference compound]",Ki,human KOP receptor [1]; [17],541 ± 36.3 nM
same,Ki,human MOP receptor [3]; [18],623 ± 156 nM
same,Ki,human DOP receptor [4]; [16],2890 ± 532 nM
"CC(C)[C@@H](CN1CCC(c2cccc(O)c2)CC1)NC(=O)[C@H]1Cc2ccc(O)cc2CN1 [1 (AT-076), (R)-7-hydroxy-N-((S)-1-(4-(3-hydroxyphenyl)piperidin-1-yl)-3-methylbutan-2-yl)-1,2,3,4-tetrahydroisoquinoline-3-carboxamide]",Ki,human KOP receptor [1]; [17],1.14 ± 0.63 nM
same,Antagonist Potency (pA2 ± SEM) MOP,human MOP receptor [5]; cho cell membranes,9.24
same,Ki,human DOP receptor [9],19.6 ± 1.3 nM
same,Antagonist Potency (pA2 ± SEM) KOP,human KOP receptor [6]; cho cell membranes,8.366
same,Ki,human KOP receptor [10],1.14 ± 0.63 nM
same,Ki,human MOP receptor [11],1.67 ± 0.6 nM
same,Ki,human MOP receptor [3]; [18],1.67 ± 0.6 nM
same,Ki,human DOP receptor [4]; [16],19.6 ± 1.3 nM
same,Kb,human DOP receptor [12],26.9 nM
"CC(C)[C@@H](CN1CCC(c2cccc(O)c2)CC1)NC(=O)[C@H]1Cc2ccc(CNC(=N)N)cc2CN1 [Compound 4, (R)-7-(guanidinomethyl)-N-((S)-1-(4-(3-hydroxyphenyl)piperidin-1-yl)-3-methylbutan-2-yl)-1,2,3,4-tetrahydroisoquinoline-3-carboxamide]",Ki,human KOP receptor [1]; [13],129 ± 60 nM
same,Decrease in KOP binding affinity compared to AT-076,human KOP receptor [1]; vs lead AT-076 (1),> 100 fold
same,Ki,human NOP receptor [2]; [14],3260 ± 780 nM
same,Ki,human MOP receptor [3]; [15],180 ± 70 nM
same,Decrease in MOP binding affinity compared to AT-076,human MOP receptor [3]; vs lead AT-076 (1),> 100 fold
same,Ki,human DOP receptor [4]; [16],> 10000 nM
same,Decrease in DOP binding affinity compared to AT-076,human DOP receptor [4]; vs lead AT-076 (1),> 100 fold
"CC(C)[C@@H](CN1CCC(c2cccc(CN)c2)CC1)NC(=O)[C@H]1Cc2ccccc2CN1 [Compound 11, (R)-N-((S)-1-(4-(3-(aminomethyl)phenyl)piperidin-1-yl)-3-methylbutan-2-yl)-1,2,3,4-tetrahydroisoquinoline-3-carboxamide]",Ki,human KOP receptor [1]; [13],408 ± 30.8 nM
same,Ki,human NOP receptor [2]; [14],202 ± 55.6 nM
same,Ki,human MOP receptor [3]; [15],284 ± 75.3 nM
same,Ki,human DOP receptor [4]; [16],> 10000 nM
"CC(C)[C@@H](CN1CCC(C2CCCCC2)CC1)NC(=O)[C@H]1Cc2ccc(O)cc2CN1 [Compound 14, (R)-N-((S)-1-(4-cyclohexylpiperidin-1-yl)-3-methylbutan-2-yl)-7-hydroxy-1,2,3,4-tetrahydroisoquinoline-3-carboxamide]",Binding selectivity for KOP over DOP,human KOP receptor [1],49 fold
same,Binding selectivity for KOP over MOP,human KOP receptor [1],11 fold
same,Binding selectivity for KOP over NOP,human KOP receptor [1],333 fold
same,Higher KOP affinity than AT-076,human KOP receptor [1],2–4 fold
same,Ki,human KOP receptor [1],0.253 ± 0.015 nM
same,Kb,human MOP receptor [5],0.692 nM
same,Kb,human KOP receptor [6],0.0347 nM
same,Ki,human NOP receptor [2],84.4 ± 13.6 nM
same,Ki,human MOP receptor [3],2.79 ± 0.28 nM
same,Ki,human DOP receptor [4],12.4 ± 8 nM
same,Kb,human DOP receptor [12],42.3 nM
"CC(C)[C@@H](CN1CCC(c2cccc(O)c2)CC1)NC(=O)[C@H]1Cc2ccc(CNS(C)(=O)=O)cc2CN1 [Compound 5, (R)-N-((S)-1-(4-(3-hydroxyphenyl)piperidin-1-yl)-3-methylbutan-2-yl)-7-(methylsulfonamidomethyl)-1,2,3,4-tetrahydroisoquinoline-3-carboxamide]",Ki,human KOP receptor [1]; [13],295 ± 65 nM
same,Ki,human NOP receptor [2]; [14],7910 ± 1470 nM
same,Ki,human MOP receptor [3]; [15],4400 ± 2350 nM
same,Ki,human DOP receptor [4]; [16],> 10000 nM
